# Reference: patent US6107313A, “Dopamine receptor antagonists” (CombiChem, Inc., priority 1998, dated 2000)
# What was measured:
# [1] = biological target: T1, Dopamine, D4.4 (Human Recombinant) (Homo sapiens, UniProt P21917); assay: dopamine D4.4 receptor binding assay, [3H]spiperone, human recombinant (CHO cells); settings: 1 h, N = 2, read-out: % Specific Binding; for activity at 10 µM: concentration 1.0E-5, average; for activity at 1 µM: concentration 1.0E-6, average; for activity at 0.1 µM: concentration 1.0E-7, average; for activity at 0.01 µM: concentration 1.0E-8, average; for activity at 0.001 µM: concentration 1.0E-9, average; for activity at 3 µM: concentration 3.0E-6, average; for activity at 0.3 µM: concentration 3.0E-7, average; for activity at 0.03 µM: concentration 3.0E-8, average; for activity at 0.003 µM: concentration 3.0E-9, average; for activity at 0.0003 µM: concentration 3.0E-10, average
# T1 construct: expressed in transfected cells; host or cells: CHO cells (membranes)
# T1 sequence (P21917 1-419): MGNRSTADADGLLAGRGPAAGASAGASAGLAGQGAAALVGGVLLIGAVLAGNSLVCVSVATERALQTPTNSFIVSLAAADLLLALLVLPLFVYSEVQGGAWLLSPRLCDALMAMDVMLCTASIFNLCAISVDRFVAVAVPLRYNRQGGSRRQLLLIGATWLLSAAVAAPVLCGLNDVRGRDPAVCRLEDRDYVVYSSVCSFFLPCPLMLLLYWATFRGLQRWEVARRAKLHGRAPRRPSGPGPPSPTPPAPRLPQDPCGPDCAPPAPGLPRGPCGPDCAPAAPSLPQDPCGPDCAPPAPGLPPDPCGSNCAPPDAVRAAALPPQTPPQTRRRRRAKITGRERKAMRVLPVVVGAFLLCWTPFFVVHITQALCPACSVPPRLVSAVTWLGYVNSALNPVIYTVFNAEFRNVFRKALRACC
# Protocol: [The source words this procedure for another target and reports this target under the same test.] (§1) Following incubation, the membranes were rapidly filtered under vacuum through GF/B glass fiber filters (Packard). The filters were then washed several times with an ice-cold buffer using a Packard cell harvester.
# (§2) Bound radioactivity was measured with a scintillation counter (Topcount, Packard) using a liquid scintillation cocktail (Microscint 0, Packard).
# (§3) The compounds were tested in each assay at ten concentrations in duplicate to obtain competition curves.
# (§4) In each experiment, the respective reference compound was simultaneously tested at eight concentrations in duplicate to obtain competition curves in order to validate this experiment.
# (§5) The specific radioligand binding to the receptors is defined as the difference between total binding and nonspecific binding determined in the presence of an excess of unlabelled ligand (see section 2.1).
# (§6) Results are expressed as a percent of control specific binding obtained in the presence of the test compounds.
# (§7) These parameters were obtained by Hill equation curve fitting. The inhibition constants (Ki) were calculated from the Cheng Prusoff equation (Ki =IC50 /(1+L/KD), where L=concentration of radioligand in the assay, and KD=affinity of radioligand for the receptor).
# (§8) Reactions were carried out in 50 mM TRIS-HCl (pH 7.4) containing 120 mM NaCl, 5 mM KCl, 5 mM MgCl2, 1mM EDTA for 60 minutes at 25 ° C. The reaction was terminated by rapid vacuum filtration onto glass fiber filters. Radioactivity trapped onto the filters was determined and compared to control values in order to ascertain any interactions of test compound(s) with the cloned dopamine D2 short binding site.
# [2] = biological target: T2, Dopamine, D2s (Human Recombinant) (Homo sapiens, UniProt P14416); assay: dopamine D2 receptor binding assay, [3H]spiperone, human recombinant (A9L cells); settings: 1 h, N = 2, read-out: % Specific Binding; for activity at 10 µM: concentration 1.0E-5, average; for activity at 1 µM: concentration 1.0E-6, average; for activity at 0.1 µM: concentration 1.0E-7, average; for activity at 0.01 µM: concentration 1.0E-8, average; for activity at 0.001 µM: concentration 1.0E-9, average; for activity at 3 µM: concentration 3.0E-6, average; for activity at 0.3 µM: concentration 3.0E-7, average; for activity at 0.03 µM: concentration 3.0E-8, average; for activity at 0.003 µM: concentration 3.0E-9, average; for activity at 0.0003 µM: concentration 3.0E-10, average
# T2 construct: expressed in transfected cells; host or cells: A9L cells (membranes)
# Protocol: as §1, §2, §3, §4, §5, §6, §7, §8
# T2 sequence (P14416 1-414 isoform P14416-2): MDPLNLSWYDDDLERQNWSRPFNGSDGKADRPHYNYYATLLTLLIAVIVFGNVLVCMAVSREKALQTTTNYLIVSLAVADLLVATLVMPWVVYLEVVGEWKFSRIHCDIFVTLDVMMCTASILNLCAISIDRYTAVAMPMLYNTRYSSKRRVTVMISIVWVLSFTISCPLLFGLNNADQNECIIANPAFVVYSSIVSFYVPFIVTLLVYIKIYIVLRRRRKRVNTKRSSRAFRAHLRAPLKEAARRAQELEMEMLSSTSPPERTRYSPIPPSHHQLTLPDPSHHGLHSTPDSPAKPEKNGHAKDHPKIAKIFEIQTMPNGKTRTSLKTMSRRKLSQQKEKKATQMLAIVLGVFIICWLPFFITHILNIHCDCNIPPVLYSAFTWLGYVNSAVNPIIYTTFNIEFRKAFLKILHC
activity at 10 µM [1],activity at 1 µM [1],activity at 0.1 µM [1],activity at 0.01 µM [1],activity at 0.001 µM [1],activity at 3 µM [1],activity at 0.3 µM [1],activity at 0.03 µM [1],activity at 0.003 µM [1],activity at 0.0003 µM [1],activity at 10 µM [2],activity at 1 µM [2],activity at 0.1 µM [2],activity at 0.01 µM [2],activity at 0.001 µM [2],activity at 3 µM [2],activity at 0.3 µM [2],activity at 0.03 µM [2],activity at 0.003 µM [2],activity at 0.0003 µM [2],SMILES
-7.32%,1.74%,29.2%,81.9%,107%,4.6%,4.79%,60%,95.2%,109%,33%,101%,87.7%,88.3%,94.8%,102%,94.6%,84.9%,108%,98.5%,"Clc1cccc(CN2CCC(c3nc(-c4cccs4)no3)CC2)c1 [Compound 5c, 4-[3-(2-thienyl)-1,2,4-oxadiazol-5-yl]-N-(3-chlorobenzyl) piperidine]"
2.15%,6.58%,47.5%,92.1%,102%,12.2%,22.9%,77.1%,96.4%,101%,39.5%,106%,105%,100%,104%,113%,117%,99.8%,105%,85.2%,"COc1ccc(CN2CCC(c3nc(-c4ccccc4C)no3)CC2)cc1 [Compound 5d, 4-(3-o-tolyl-1,2,4-oxadiazol-5-yl)-N-(4-methoxybenzyl) piperidine]"
-3.8%,0.44%,22.8%,53.6%,76%,-0.19%,4.28%,29.7%,73.1%,82.3%,24.6%,91.3%,112%,103%,104%,61.9%,116%,104%,97.3%,116%,"Clc1ccc(CN2CCC(c3nc(-c4cccs4)no3)CC2)cc1 [Compound 5b, 4-[3-(2-thienyl)-1,2,4-oxadiazol-5-yl]-N-(4-chlorobenzyl) piperidine]"
3.57%,46.6%,76.8%,81%,80.2%,16.4%,80.4%,76.3%,84.4%,90.9%,116%,102%,84.7%,89.7%,93.4%,99.4%,101%,107%,90.8%,89.9%,"Cc1ccc(-c2noc(C3CCN(Cc4ccc(Cl)c(Cl)c4)CC3)n2)cc1 [Compound 5a, 4-(3-p-tolyl-1,2,4-oxadiazol-5-yl)-N-(3,4-dichlorobenzyl) piperidine]"
